Test results taken from the supplement of paper PMC10883282.

Legend:
Test in all cases: relative viability vs DMSO control (72 h) (fraction); higher = more viable cells
[1] = system: A204
Outline: (§1)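 Percent growth from ATPLite readings, averaged over up to triplicate wells, was used as relative viability. Sarcoma cell lines were seeded into 384-well plates for 80–90% confluence, dosed after 24 h, and kept 72 h at 37 °C, 5% CO2. Data were rescaled to a range where 1 is full and 0 is none.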

[2] = system: G401
Outline: as §1

[3] = system: HS729
Outline: as §1

[4] = system: HT1080
Outline: as §1

[5] = system: KHOS-NP
Outline: as §1

[6] = system: MES-SA
Outline: as §1

[7] = system: SK-LMS-1
Outline: as §1

[8] = system: SW1353
Outline: as §1

[9] = system: SW684
Outline: as §1

[10] = system: SW872
Outline: as §1

[11] = system: SYO-1
Outline: as §1

[12] = system: VA-ES-BJ
Outline: as §1

COC(=O)[C@@]1(O)C[C@H]2O[C@]1(C)n1c3ccccc3c3c4c(c5c6ccccc6n2c5c31)C(=O)NC4 [K-252a]
Details | relative viability
[1], 0.00017 µM | 1.06
[1], 0.00051 µM | 1.11
[1], 0.00152 µM | 1.06
[1], 0.00457 µM | 1.07
[1], 0.01372 µM | 0.941
[1], 0.04115 µM | 0.6765
[1], 0.1235 µM | 0.527
[1], 0.3704 µM | 0.433
[1], 1.111 µM | 0.374
[1], 3.333 µM | 0.31
[1], 10 µM | 0.0136
[2], 0.00017 µM | 1.05
[2], 0.00051 µM | 1.06
[2], 0.00152 µM | 1.03
[2], 0.00457 µM | 1.031
[2], 0.01372 µM | 1.04
[2], 0.04115 µM | 0.977
[2], 0.1235 µM | 1
[2], 0.3704 µM | 0.893
[2], 1.111 µM | 0.0854
[2], 3.333 µM | 0.0149
[2], 10 µM | 0.00607
[3], 0.00017 µM | 1.06
[3], 0.00051 µM | 1.02
[3], 0.00152 µM | 1
[3], 0.00457 µM | 0.923
[3], 0.01372 µM | 0.863
[3], 0.04115 µM | 0.754
[3], 0.1235 µM | 0.713
[3], 0.3704 µM | 0.752
[3], 1.111 µM | 0.588
[3], 3.333 µM | 0.356
[3], 10 µM | 0.0254
[4], 0.00017 µM | 1.09
[4], 0.00051 µM | 1.09
[4], 0.00152 µM | 1.09
[4], 0.00457 µM | 1.09
[4], 0.01372 µM | 1.16
[4], 0.04115 µM | 1.13
[4], 0.1235 µM | 1.05
[4], 0.3704 µM | 1.13
[4], 1.111 µM | 0.683
[4], 3.333 µM | 0.105
[4], 10 µM | 0.0141
[5], 0.00017 µM | 1.09
[5], 0.00051 µM | 1.101
[5], 0.00152 µM | 1.1
[5], 0.00457 µM | 1.08
[5], 0.01372 µM | 1.1
[5], 0.04115 µM | 1.071
[5], 0.1235 µM | 0.961
[5], 0.3704 µM | 0.927
[5], 1.111 µM | 0.286
[5], 3.333 µM | 0.154
[5], 10 µM | 0.0717
[6], 0.00017 µM | 0.97
[6], 0.00051 µM | 0.953
[6], 0.00152 µM | 0.956
[6], 0.00457 µM | 0.916
[6], 0.01372 µM | 0.827
[6], 0.04115 µM | 0.618
[6], 0.1235 µM | 0.596
[6], 0.3704 µM | 0.407
[6], 1.111 µM | 0.324
[6], 3.333 µM | 0.0952
[6], 10 µM | 0.00197
[7], 0.00017 µM | 1.03
[7], 0.00051 µM | 1.01
[7], 0.00152 µM | 1.04
[7], 0.00457 µM | 1.044
[7], 0.01372 µM | 0.9
[7], 0.04115 µM | 0.719
[7], 0.1235 µM | 0.664
[7], 0.3704 µM | 0.619
[7], 1.111 µM | 0.339
[7], 3.333 µM | 0.212
[7], 10 µM | 0.0825
[8], 0.00017 µM | 1.037
[8], 0.00051 µM | 1.033
[8], 0.00152 µM | 1.03
[8], 0.00457 µM | 1
[8], 0.01372 µM | 0.964
[8], 0.04115 µM | 0.892
[8], 0.1235 µM | 0.814
[8], 0.3704 µM | 0.772
[8], 1.111 µM | 0.528
[8], 3.333 µM | 0.294
[8], 10 µM | 0.0167
[9], 0.00017 µM | 1.12
[9], 0.00051 µM | 1.176
[9], 0.00152 µM | 1.14
[9], 0.00457 µM | 1.18
[9], 0.01372 µM | 1.2
[9], 0.04115 µM | 1.14
[9], 0.1235 µM | 1.05
[9], 0.3704 µM | 0.906
[9], 1.111 µM | 0.512
[9], 3.333 µM | 0.0655
[9], 10 µM | 0.0141
[10], 0.00017 µM | 1.09
[10], 0.00051 µM | 1.06
[10], 0.00152 µM | 1.1
[10], 0.00457 µM | 1.05
[10], 0.01372 µM | 0.985
[10], 0.04115 µM | 0.843
[10], 0.1235 µM | 0.759
[10], 0.3704 µM | 0.589
[10], 1.111 µM | 0.394
[10], 3.333 µM | 0.0892
[10], 10 µM | 0.0117
[11], 0.00017 µM | 1.03
[11], 0.00051 µM | 0.983
[11], 0.00152 µM | 0.982
[11], 0.00457 µM | 0.9645
[11], 0.01372 µM | 0.928
[11], 0.04115 µM | 0.862
[11], 0.1235 µM | 0.66
[11], 0.3704 µM | 0.302
[11], 1.111 µM | 0.137
[11], 3.333 µM | 0.128
[11], 10 µM | 0.13
[12], 0.00017 µM | 1.09
[12], 0.00051 µM | 1.07
[12], 0.00152 µM | 1.09
[12], 0.00457 µM | 1.07
[12], 0.01372 µM | 1.05
[12], 0.04115 µM | 0.922
[12], 0.1235 µM | 0.773
[12], 0.3704 µM | 0.67
[12], 1.111 µM | 0.381
[12], 3.333 µM | -0.0139
[12], 10 µM | -0.0189
